In ChEMBL document CHEMBL1201862, “PubChem BioAssay data set” (2004):
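Each compound was tested at five concentrations against cells in 96-well plates for 48 hours. Abbreviation: GI50, concentration required for 50% inhibition of growth.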 Active and inactive are the calls of the source. Rule as the data show it: active = GI50 up to about 1.1 µM and inactive = higher.

What was measured:
Test in all cases: NCI tumour cell line growth inhibition, 48 h
HCC 2998 = system: HCC 2998
IGROV-1 = system: IGROV-1
CAKI-1 = system: CAKI-1
SK-MEL-5 = system: SK-MEL-5
OVCAR-4 = system: OVCAR-4
RXF 393 = system: RXF 393
Hs-578T = system: Hs-578T
SK-OV-3 = system: SK-OV-3
DU-145 = system: DU-145
KM12 = system: KM12
OVCAR-5 = system: OVCAR-5
TK-10 = system: TK-10
PC-3 = system: PC-3
U-251 = system: U-251
786-0 = system: 786-0
UO-31 = system: UO-31
NCI/ADR-RES = system: NCI/ADR-RES
OVCAR-8 = system: OVCAR-8
MOLT-4 = system: MOLT-4
NCI-H522 = system: NCI-H522

Measured: GI50

Clc1c2ncccc2cc2nn[nH]c12
inactive: HCC 2998 > 100 µM | IGROV-1 33 µM | CAKI-1 > 100 µM | SK-MEL-5 > 100 µM | OVCAR-4 > 100 µM | RXF 393 > 100 µM | Hs-578T 93.8 µM | SK-OV-3 > 100 µM | DU-145 > 100 µM | KM12 > 100 µM | OVCAR-5 74.5 µM | TK-10 > 100 µM | PC-3 > 100 µM | U-251 > 100 µM | 786-0 > 100 µM | UO-31 82.6 µM | NCI/ADR-RES > 100 µM | OVCAR-8 > 100 µM | MOLT-4 15.8 µM | NCI-H522 33 µM

CCCCCCCCCCCCC/C=C/[C@@H](O)[C@H](COC1OC(CO)C(OC2OC(CO)C(O)C(OC3(C(=O)O)CC(O)C(NC(C)=O)C(C(O)C(O)CO)O3)C2O)C(O)C1O)N=[N+]=[N-] (stereo not given in full)
inactive: HCC 2998 > 100 µM | IGROV-1 32.9 µM | CAKI-1 > 100 µM | SK-MEL-5 17.4 µM | OVCAR-4 > 100 µM | RXF 393 20.7 µM | Hs-578T 55.7 µM | SK-OV-3 31.2 µM | DU-145 > 100 µM | KM12 18.5 µM | OVCAR-5 56 µM | TK-10 > 100 µM | PC-3 24.2 µM | U-251 19.9 µM | 786-0 > 100 µM | UO-31 23 µM | NCI/ADR-RES 21.8 µM | OVCAR-8 21.8 µM | MOLT-4 21.7 µM | NCI-H522 32.5 µM

C=CC/C=C/Cc1csc(C(C)(C)C(O)C/C=C/C(=C)CCNC(=O)OC)n1 (stereo not given)
inactive: HCC 2998 > 95.3 µM | IGROV-1 28.4 µM | CAKI-1 > 67 µM | SK-MEL-5 1.17 µM | OVCAR-4 > 57.3 µM | RXF 393 > 63.4 µM | Hs-578T > 100 µM | SK-OV-3 > 85.3 µM | DU-145 > 100 µM | KM12 > 60.3 µM | OVCAR-5 > 100 µM | TK-10 > 100 µM | PC-3 > 100 µM | U-251 74.5 µM | 786-0 > 100 µM | UO-31 > 71.3 µM | NCI/ADR-RES 75.7 µM | OVCAR-8 > 73.5 µM | MOLT-4 36.1 µM | NCI-H522 19.1 µM

CC1OC(O[C@H]2C3C=CO[C@@H](OC4OC(CO)C(O)C(O)C4O)C3[C@@]3(COC(=O)/C=C/c4ccc(O)cc4)O[C@@H]23)C(O)C(O)C1O (stereo not given in full)
inactive: HCC 2998 > 100 µM | IGROV-1 > 100 µM | CAKI-1 > 100 µM | SK-MEL-5 > 100 µM | OVCAR-4 > 100 µM | RXF 393 > 100 µM | Hs-578T > 100 µM | SK-OV-3 > 100 µM | DU-145 > 100 µM | KM12 > 100 µM | OVCAR-5 > 100 µM | TK-10 > 100 µM | PC-3 > 100 µM | U-251 > 100 µM | 786-0 > 100 µM | UO-31 > 100 µM | NCI/ADR-RES > 100 µM | OVCAR-8 > 100 µM | MOLT-4 > 100 µM | NCI-H522 > 100 µM

COc1ccc2c(c1)/C(=C\c1c(Cl)nc3n1CCS3)C(=O)N2
inactive: HCC 2998 2.74 µM | IGROV-1 7.28 µM | CAKI-1 7.48 µM | SK-MEL-5 5.06 µM | OVCAR-4 11.9 µM | RXF 393 2.13 µM | Hs-578T 11.2 µM | SK-OV-3 13.1 µM | DU-145 11.8 µM | KM12 2.62 µM | OVCAR-5 13.5 µM | TK-10 5 µM | PC-3 3.36 µM | U-251 5.37 µM | 786-0 7.83 µM | UO-31 5.86 µM | NCI/ADR-RES 4.48 µM | OVCAR-8 19.7 µM | MOLT-4 4.01 µM | NCI-H522 3.73 µM

N=C(N)NS(=O)(=O)c1ccc(NC(=O)c2cccc3c(NNc4ccc(S(=O)(=O)N=C(N)N)cc4)c4ccccc4nc23)cc1
inactive: HCC 2998 90.6 µM | IGROV-1 51.5 µM | CAKI-1 > 100 µM | SK-MEL-5 56.9 µM | OVCAR-4 80.5 µM | RXF 393 > 100 µM | Hs-578T 54.7 µM | SK-OV-3 > 100 µM | DU-145 > 100 µM | KM12 > 100 µM | OVCAR-5 > 100 µM | TK-10 > 100 µM | PC-3 61 µM | U-251 28.4 µM | 786-0 44.2 µM | UO-31 > 100 µM | NCI/ADR-RES > 100 µM | OVCAR-8 53.5 µM | MOLT-4 30.8 µM | NCI-H522 25.6 µM

CC(=O)/C(=C/c1ccccc1F)C(=O)c1ccccc1
inactive: HCC 2998 16.2 µM | IGROV-1 44.2 µM | CAKI-1 > 100 µM | SK-MEL-5 42.9 µM | OVCAR-4 67.8 µM | RXF 393 17.4 µM | Hs-578T 32.4 µM | SK-OV-3 34.9 µM | DU-145 33.6 µM | KM12 30.9 µM | OVCAR-5 > 100 µM | TK-10 24.4 µM | PC-3 27.7 µM | U-251 29.6 µM | 786-0 31.7 µM | UO-31 34.1 µM | NCI/ADR-RES 29.1 µM | OVCAR-8 21.6 µM | MOLT-4 2.19 µM | NCI-H522 26.5 µM
